Where “and” joins values, the source holds several entries; their conditions need not be identical. Equal entries are not always repeated.
What was measured:
[1] = physchem
[2] = milogP calculated using Molinspiration Cheminformatics; settings: Table SI14
[3] = log P determination by 19F NMR shake-flask method with internal fluorinated reference (octanol/water)
[4] = method and temperature not provided; ref U.S. National Library of Medicine online database (chemidplus); cited from earlier work
[5] = error (mean logP to three decimals)
[6] = octanol/water, Average logP, 25 °C, reference TFE (+0.36)
[7] = octanol/water, error (mean logP to three decimals), reference TFE (+0.36)
[8] = octanol/water, logP, 19F NMR, 25 °C, average value
[9] = octanol/water, logP, single experiment, reference TFE (+0.36)
[10] = octanol/water, Average logP, reference 4,4,4-trifluoro-1-butanol (TB, +0.91EXP)
[11] = octanol/water, error (mean logP to three decimals), reference TB (+0.91EXP)
[12] = octanol/water, logP, single experiment, reference 4,4,4-trifluoro-1-butanol (TB, +0.91EXP)
[13] = single experiment, reference TFE (+0.36)
[14] = octanol/water, Average logP, 25 °C, reference FE (-0.75)
[15] = octanol/water, error (mean logP to three decimals), reference FE (-0.75)
[16] = single experiment, reference FE (-0.75)
[17] = Average logP, 25 °C, reference TFE (+0.36)
[18] = logP, octanol/water, 19F NMR, 25 °C, average value
[19] = logP, single experiment, reference TFE (+0.36)

Row | Compound | ΔlogP (milogP vs logP exp) [2] | logP [3, 6] | logP [3, 7] | logP [3, 8] | logP [3, 9] | other results
1 | OCCC(F)(F)C(F)(F)F [compound 24] | – | – | – | – | – | logP ([1]; Average logP): 1.3; logP [1, 5]: 1.3; logP ([1]; logP): 1.29
2 | OCCCCCF [compound 30, 5-fluoro-1-pentanol] | – | – | – | – | – | logP ([1]; Average logP): 0.52; logP [1, 5]: 0.524; logP ([1]; logP): 0.524
3 | C[C@H](O)C[C@H](C)F [compound 27] | +0.40 | 0.57 | 0.569 | 0.57 | 0.57 | –
4 | CC(O)(C(F)(F)F)C(F)(F)F [compound 15] | – | – | – | – | – | logP [1, 5]: 2.08; logP ([1]; logP): 2.08
5 | CC(C)(C)[C@H]1CC[C@H](O)CC1 [K, reference compound] | – | – | – | – | – | logP (lit) [4]: +3.09
6 | CC(C)(O)C(F)(F)F [compound 14] | +0.39 | 1.03 | 1.03 | – | 1.03 | –
7 | CCCC(O)C(F)(F)F (stereo not shown) [compound 29, 1,1,1-trifluoropentan-2-ol] | – | 1.82 | 1.82 | – | 1.83 | –
8 | CC(C)(C)[C@H]1CC[C@@H](O)CC1 [L, reference compound] | – | – | – | – | – | logP (lit) [4]: +3.02
9 | OCC(F)(F)C(F)(F)CO [compound 41] | – | – | – | – | – | logP ([1]; Average logP): -0.11; logP [1, 5]: -0.109
10 | CC(F)(F)CCCO [compound 32, 4,4-difluoropentan-1-ol] | – | 0.71 | 0.708 | – | 0.712 | logP [3, 13]: +0.712
11 | CC(O)CC(C)(F)F (stereo not shown) [compound 28] | +0.67 | 0.66 | 0.662 | – | 0.659 | –
12 | CC(O)CCF (stereo not shown) [compound 16] | – | – | – | – | – | logP ([1]; Average logP): 0.08; logP [1, 5]: 0.084; logP ([1]; logP): 0.077
13 | OCC(F)(F)F [compound 3, 2,2,2-Trifluoroethanol] | +0.25 | – | – | – | – | –
14 | CC(F)CCCO (stereo not shown) [compound 31, 4-fluoropentan-1-ol] | – | 0.52 | 0.522 | – | 0.517 | –
15 | OC(CF)CF [compound 4] | – | – | – | – | – | logP [1, 17]: -0.42; logP [1, 5]: -0.421; logP [1, 18]: -0.42; logP [1, 19]: -0.42; Average logP ([3]; 25 °C, reference TFE (+0.36)): -0.42
16 | OCCC(F)F [compound 10] | +0.48 | 0.04 | 0.038 | – | 0.033 | –
17 | OCCCC(F)(F)C(F)F [compound 34, 4,4,5,5-tetrafluoropentan-1-ol] | – | – | – | – | – | logP ([1]; Average logP): 0.97; logP [1, 5]: 0.974; logP ([1]; logP): 0.971
18 | CCCC(C)O (stereo not shown) [G, 2-PentOH, reference compound] | – | – | – | – | – | logP (lit) [4]: +1.19
19 | CC(O)C(F)(F)C(F)(F)F (stereo not shown) [compound 20] | – | – | – | – | – | logP ([1]; Average logP): 1.53; logP [1, 5]: 1.53; logP ([1]; logP): 1.53
20 | CC(O)C(F)(F)C(F)F (stereo not shown) [compound 19] | – | – | – | – | – | logP ([1]; Average logP): 1.05; logP [1, 5]: 1.05; logP ([1]; logP): 1.05
21 | CC(O)CC(F)(F)F (stereo not shown) [compound 18] | +0.53 | 0.72 | 0.721 | 0.71 | 0.725 | ΔlogP (exp. logP vs logP lit) ([3]; Table SI12): +0.01
22 | OCCCC(F)(F)C(F)(F)F [compound 36] | – | – | – | – | – | logP ([1]; Average logP): 1.72; logP [1, 5]: 1.72; logP ([1]; logP): 1.73
23 | CC(O)CC(F)F (stereo not shown) [compound 17] | +0.46 | 0.42 | 0.417 | 0.42 | 0.42 | –
24 | CC(F)CCO (stereo not shown) [compound 22, 3-fluorobutan-1-ol] | – | 0.17 | 0.173 | – | 0.166 | –
25 | OCCCCF [compound 21] | – | – | – | – | – | logP [1, 17]: 0.09; logP ([1]; error (mean logP to three decimals), reference TFE (+0.36)): 0.09; logP ([1]; logP): 0.092; logP [1, 18]: 0.09; logP [1, 19]: 0.09
26 | CC(F)(F)CO [compound 11] | +0.59 | 0.11 | 0.11 | 0.11 | 0.113 | –
27 | C[C@H](O)C[C@@H](C)F [compound 26] | +0.49 | 0.48 | 0.477 | – | 0.476 | logP [3, 13]: +0.476

More lines, main results first:

Row | ΔlogP (milogP vs logP exp) [2] | logP [3, 6] | logP [3, 7] | logP [3, 8] | logP [3, 9] | Compound | other results
28 | +0.07 | – | – | 2.63 | – | CC(C)(C)[C@H]1CC[C@H](O)[C@H](F)C1 (relative stereo) [compound 42] | –
29 | – | -0.32 | – | – | -0.316 | OC[C@H]1OC(O)C(F)(F)C(F)(F)[C@@H]1O (stereo partly drawn) [compound 54, 2,3-Dideoxy-2,2,3,3-tetrafluoro-D-erythro-hexopyranose] | –
30 | +0.44 | – | – | -2.37 | – | O=C[C@H](F)[C@@H](O)[C@@H](O)[C@H](O)CO [compound 47, 2-Fluoro-2-deoxy-D-galactose] | –
31 | – | – | – | 2.61 | – | CC(C)(C)[C@H]1CC[C@H](O)[C@@H](F)C1 (relative stereo) [compound 43] | –
32 | +0.28 | – | – | -2.21 | – | O=C[C@H](F)[C@@H](O)[C@H](O)[C@H](O)CO [compound 49, 2-Fluoro-2-deoxy-D-glucose] | –
33 | +0.27 | – | – | 1.71 | – | CC[C@H](O)C[C@@H](F)CC [compound 38] | logP [3, 10]: 1.71; logP [3, 11]: 1.71; logP [3, 12]: 1.69
34 | +0.59 | – | – | – | – | OC[C@@H](F)[C@@H](F)CO [compound 40] | logP [3, 14]: -0.97; logP ([3]; octanol/water, Average logP, internal validation, reference -1.01EXP): -0.98; logP ([3]; octanol/water, error (mean logP to three decimals), internal validation, reference -1.01EXP): -0.98; logP [3, 15]: -0.968; logP ([3]; single experiment, internal validation, reference -1.01EXP): -0.981 and -0.984 and -0.975; logP [3, 16]: -0.957
35 | +0.63 | – | – | – | – | OC[C@H](F)[C@@H](F)CO [compound 39] | logP [3, 14]: -1.01; logP [3, 15]: -1.01; logP [3, 16]: -1.006 and -1.012
36 | – | – | – | -1.45 | – | OC[C@H]1OC(O)C[C@@H](F)[C@@H]1O (stereo partly drawn) [compound 51, 2,3-Dideoxy-3-fluoro-D-glucopyranose] | –
37 | +0.32 | – | – | -2.47 | – | O=C[C@H](O)[C@@H](F)[C@@H](O)[C@H](O)CO [compound 46, 3-Fluoro-3-deoxy-D-galactose] | –
38 | – | – | – | 2.23 | – | CC(C)(C)C1CCC(O)CC1F (stereo not shown) [compound 45] | –
39 | +0.07 | -0.58 | -0.576 | – | – | OC[C@H]1OC(O)C(F)(F)C(F)(F)[C@H]1O (stereo partly drawn) [compound 53, 2,3-Dideoxy-2,2,3,3-tetrafluoro-D-threo-hexopyranose] | logP [3, 13]: -0.574 and -0.573 and -0.583
40 | – | – | – | -1.11 | – | OC[C@H]1OC(O)[C@H](F)[C@@H](F)[C@@H]1O (stereo partly drawn) [compound 52, 2,3-Dideoxy-2,3-difluoro-D-glucopyranose] | logP ([3]; octanol/water, log P units more lipophilic than Glc, relative to glucose): ~2.1; logP ([3]; octanol/water, logP, single experiment, reference FE (-0.75)): -1.11
41 | -0.51 | – | – | 3.21 | – | CC(C)(C)[C@H]1CC[C@@H](O)[C@H](F)C1 (relative stereo) [compound 44] | –
42 | – | 0.87 | 0.868 | – | 0.872 | CCCC(F)CO (stereo not shown) [compound 33, 2-fluoropentan-1-ol] | logP ([3]; multiple acquisitions of one sample (Table SI7), single acquisition, reference 2,2,2-trifluoroethanol): 0.5206 and 0.5160 and 0.5224 and 0.5294 and 0.5210 and 0.5213; logP ([3]; multiple reprocessing of one FID (Table SI8), single reprocessing): 0.5205 and 0.5167 and 0.5166 and 0.5215 and 0.5186; logP ([3]; octanol/water, logP Average, seven acquisitions (Table SI7)): 0.521; logP ([3]; octanol/water, logP Average, seven reprocessings (Table SI8)): 0.518; logP ([3]; octanol/water, logP, multiple acquisitions of one sample (Table SI7), single acquisition, reference 2,2,2-trifluoroethanol): 0.517; logP ([3]; octanol/water, logP, multiple reprocessing of one FID (Table SI8), single reprocessing): 0.513
43 | – | – | – | -2.11 | – | O=C[C@@H](F)[C@@H](O)[C@H](O)[C@H](O)CO [compound 50, 2-Fluoro-2-deoxy-D-mannose] | –
44 | +0.65 | – | – | -2.36 | – | O=C[C@H](O)[C@@H](O)[C@H](O)[C@H](O)CF [compound 48, 6-Fluoro-6-deoxy-D-glucose] | –
45 | +0.40 | – | – | 1.58 | – | CC[C@H](O)C[C@H](F)CC [compound 37] | logP [3, 10]: 1.58; logP [3, 11]: 1.58; logP [3, 12]: 1.58

— publication PMC4832822, “Investigating the Influence of (Deoxy)fluorination on the Lipophilicity of Non‐UV‐Active Fluorinated Alkanols and Carbohydrates by a New log P Determination Method” (Angewandte Chemie (International Ed. in English), 2015)
